SMILES strings stand for the structures.

Assay [1] deals with cytosolic calcium ions concentration in cells. Briefly: Histamine-induced calcium streams in SK-N-SH cells, Phase 2 (acceleration of cytosolic calcium removal). Type of assay: cell-based. Conditions: Homo sapiens, Phase 2: acceleration of intraplasmatic calcium removal, histamine 10 μM, read-out: pIC50 Phase 2 (converted). On the procedure:
(§1) Tests of biological activity of compounds of general formula 1. In order to determine a physiological activity of the proposed compounds a focused library was compiled to include compounds of general formula 1, some of which are shown in Table 2 below. The compounds were tested as potential histamine H1 receptor antagonists, and their ability to regulate cytosolic calcium ions concentration in cells by blocking calcium channels regulated by intracellular calcium repositories was determined. Cells SK-N-SH (ATCC, USA) were grown on DMEM medium (Invitrogen, USA), containing 10% fetal calf serum (FBS) and antibiotic penicillin-streptomycin in CO2 incubator (5% CO2) until cell density was 1*10^5 cells/cm^2. The cells were removed from flask surface by reagent TrypLE Express (Invitrogen, USA), collected by centrifugation and resuspended in medium Hybridoma Serum Free Medium (HSFM, Sigma, USA) in concentration of 4*10^6 cells/ml. For measurement of cytosolic calcium concentration the cells were loaded with calcium sensitive fluorescent dye Fura 2 AM (Invitrogen, USA) by means of hatching of cells with a dye in suspension for 30 minutes at room temperature. The cells were collected by centrifugation, resuspended in HSFM, incubated in suspension for 15 minutes, collected by centrifugation, washed twice in HSFM and resuspended in HSFM in concentration of 4*10^6 cells/ml.
(§2) Registration of calcium streams in cells was carried out using spectrofluorometer Shimadzu-RF5301PC. The cells were diluted with buffer (NaCl 0.145 M, KCl 0.0054 M, NaH2PO4 0.001 M, MgSO4 0.0008 M, CaCl2 0.0018 M, HEPES 0.03 M, D-glucose 0.0112 M pH 7.4) till concentration 1*10^5 cells/ml in measuring cuvette provided with magnetic stirrer, and fluorescence was registered using a regime of two-wave excitement (340 and 380 nm, respectively) at wavelength of emission 510 nm (F1 and F2, respectively). In 20 seconds after beginning of registration 10 mM of histamine water solution was added (final concentration is 10 μM). In another 30 seconds, after achievement of calcium cytosolic concentration peak a solution of tested compound in DMSO was added and registration was continued for 3 minutes. Serial dilutions of the compounds in dimethylsulfoxide (DMSO) were prepared for determination of their biological activity, and the effect of the concentration of compound on the calcium streams induced by histamine was determined.
(§3) Transformation of fluorescence signal into calcium concentration was carried out by means of equation imbedded in program Super Ion Probe (Shimadzu), for which maximum of free calcium concentration by addition of digitonin (Sigma, USA) up to concentration of 0.1 mg/ml and zero calcium concentration by addition of ethylenediamine-tetraacetate (EDTA) up to concentration of 10 mM were determined. Kinetic curves of cytosolic calcium decrease after addition of tested compound compared to concentration after addition of histamine were calculated using single-phase exponential model by means of Prism 4 (GraphPad Software, Inc.) program:
[Ca]=[Ca]max*exp(−K*T)+[Ca]min,
wherein T means time after addition of tested compound, [Ca]max and [Ca]min correspond to maximum (peak meaning after addition of histamine) and minimum (equilibrium level to which the curve converges after addition of tested compound) concentrations of cytosolic calcium, and K means a kinetic constant of the decrease of cytosolic calcium concentration which is calculated by minimization of the least squares of deviations.
The dependence of calculated constants of calcium decreasing (K) on the concentration of tested compound (C) was drawn up, and using this dependence by means of program Prism 4 the value of EC50 (concentration of tested compound corresponding to half-maximum increase of a kinetic constant of cytozoic calcium concentration decrease) was defined using four parametrical equation. […]

A further assay concerns the target T1, histamine H1 receptor (Homo sapiens, UniProt P35367).
T1 construct: host or cells: SK-N-SH
Briefly: Histamine-induced calcium streams in SK-N-SH cells, Phase 1 (H1 receptor antagonism). Type of assay: cell-based. Conditions: Phase 1: compounds prevent calcium ions entry in cells by antagonistic action on H1-receptors, histamine 10 μM, read-out: pIC50 Phase 1 (converted). On the procedure: as §1, §2
as §3, with “program: […]” for “program:”
In Table 2 below the values corresponding to the reciprocal logarithm of EC50(−LogEC50=pEC50) for some of tested compounds of general formula 1 used as measures of these compounds activity are presented.

T1 sequence (P35367 whole entry): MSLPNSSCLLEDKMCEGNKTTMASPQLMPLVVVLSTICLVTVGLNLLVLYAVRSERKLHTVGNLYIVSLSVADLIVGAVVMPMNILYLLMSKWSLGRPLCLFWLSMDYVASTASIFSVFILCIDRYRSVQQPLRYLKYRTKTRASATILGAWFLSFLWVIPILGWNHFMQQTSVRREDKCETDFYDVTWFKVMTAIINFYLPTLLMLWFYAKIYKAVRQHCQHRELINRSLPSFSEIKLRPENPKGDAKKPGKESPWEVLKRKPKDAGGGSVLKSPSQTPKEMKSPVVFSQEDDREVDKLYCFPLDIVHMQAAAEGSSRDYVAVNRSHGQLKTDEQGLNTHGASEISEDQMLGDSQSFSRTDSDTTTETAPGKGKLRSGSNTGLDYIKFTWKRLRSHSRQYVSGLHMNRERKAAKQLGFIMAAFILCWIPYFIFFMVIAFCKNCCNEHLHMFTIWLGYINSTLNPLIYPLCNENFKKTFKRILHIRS

For the compound `CC(=O)N1c2ccc(C)cc2[C@@H]2CN(C)CCC[C@H]21` (relative stereo) [1.2.7(4), trans-6-acetyl-2,9-dimethyl-1,2,3,4,5,5a,6,10b-octahydroazepino[4,3-b]indole], the IC50 (in assay [1]; at histamine H1 receptor) was more than 100000 nM each time.

As for `Cc1ccc2c(c1)[C@@H]1CN(C)CCC[C@H]1N2CCc1cccnc1` (relative stereo) [1.2.5(4), trans-2,9-dimethyl-6-[2-(pyridin-3-yl)ethyl]-1,2,3,4,5,5a,6,10b-octahydroazepino[4,3-b]indole], the IC50 was 2510 nM in assay [1] and 158 nM on histamine H1 receptor.

`Cc1ccc2c(c1)[C@@H]1CN(C)CCC[C@H]1N2CCc1ccc(C)nc1` (relative stereo) [1.2.5(2), trans-2,9-dimethyl-6-[2-(6-methylpyridin-3-yl)ethyl]-1,2,3,4,5,5a,6,10b-octahydroazepino[4,3-b]indole]: the figures for the IC50 (in assay [1]; on histamine H1 receptor) were 1000 nM and 251 nM, respectively.

`Cc1ccc2c(c1)[C@@H]1CN(C)CCC[C@H]1N2CCc1ccccc1` (relative stereo) [1.2.6(3), trans-2,9-dimethyl-6-phenethyl-1,2,3,4,5,5a,6,10b-octahydroazepino[4,3-b]indole]: the figures for the IC50 (in assay [1]; at histamine H1 receptor) were 2000 nM and 158 nM, respectively.

With `Cc1ccc2c(c1)[C@@H]1CN(C)CCC[C@H]1N2Cc1ccccc1` (relative stereo) [1.2.6(1), trans-6-benzyl-2,9-dimethyl-1,2,3,4,5,5a,6,10b-octahydroazepino[4,3-b]indole], the IC50 in assay [1] was 631 nM; on histamine H1 receptor, 126 nM.

For `Cc1ccc2c(c1)[C@@H]1CN(C)CCC[C@H]1N2C(=O)c1ccccc1` (relative stereo) [1.2.7(3), trans-6-benzoyl-2,9-dim ethyl-1,2,3,4,5,5a,6,10b-octahydroazepino[4,3-b]indole], the IC50 (in assay [1]; at histamine H1 receptor) was more than 100000 nM each time.

Turning to `Cc1ccc2c(c1)[C@@H]1CN(C)CCC[C@H]1N2CCc1ccccn1` (relative stereo) [1.2.5(1), trans-2,9-dimethyl-6-[2-(pyridin-2-yl)ethyl]-1,2,3,4,5,5a,6,10b-octahydroazepino[4,3-b]indole], the values for the IC50 (in assay [1]; on histamine H1 receptor) were 2510 nM and 1000 nM, respectively.

With `CN1CCC[C@@H]2[C@@H](C1)c1cc(-c3ccncc3)ccc1N2CCc1cccnc1` (relative stereo) [1.2.5(6), trans-2-methyl-6-[2-(pyridin-3-yl)ethyl]-9-(pyridin-4-yl)-1,2,3,4,5,5a,6,10b-octahydroazepino[4,3-b]indole], the figures for the IC50 (in assay [1]; at histamine H1 receptor) were 1000 nM and 251 nM, respectively.

`CN1CCC[C@@H]2[C@@H](C1)c1cc(F)ccc1N2CCc1cccnc1` (relative stereo) [1.2.5(5), trans-2-methyl-6-[2-(pyridin-3-yl)ethyl]-9-fluoro-1,2,3,4,5,5a,6,10b-octahydroazepino[4,3-b]indole]: the IC50 is 631 nM in assay [1] and 126 nM at histamine H1 receptor.

With `Cc1ccc2c(c1)c1c(n2CCc2cccnc2)CCCN(C)C1` [1.1.5(5)], the IC50 was 3160 nM in assay [1] and 501 nM at histamine H1 receptor.

Turning to `Cc1ccc2[nH]c3c(c2c1)CN(C(=O)c1ccccc1)CCC3` [1.1.3.4(1), 2-benzoyl-9-methyl-1,2,3,4,5,6-hexahydroazepino[4,3-b]indole], the IC50 (in assay [1]; at histamine H1 receptor) was more than 100000 nM throughout.

For `Cc1ccc2[nH]c3c(c2c1)CN(C)CCC3` [1.1.3.3(1), 2,9-dimethyl-1,2,3,4,5,6-hexahydroazepino[4,3-b]indole], the IC50 (in assay [1]; at histamine H1 receptor) was more than 100000 nM each time.

`Cc1ccc2c(c1)c1c(n2CCc2ccccn2)CCCN(C)C1` [1.1.5(1), 2,9-dimethyl-6-[2-(pyridin-2-yl)ethyl]-1,2,3,4,5,6-hexahydroazepino[4,3-b]indole]: the IC50 (in assay [1]; on histamine H1 receptor) was 3160 nM throughout.

Consider `Cc1ccc2c(c1)[C@@H]1CN(C)CCC[C@H]1N2Cc1cccnc1` (relative stereo) [1.2.6(5), trans-2,9-dimethyl-6-(pyridin-3-ylmethyl)-1,2,3,4,5,5a,6,10b-octahydroazepino[4,3-b]indole], for which the values for the IC50 (in assay [1]; on histamine H1 receptor) were 1580 nM and 100 nM, respectively.

Consider `Cc1ccc2c(c1)[C@@H]1CN(C)CCC[C@H]1N2CCc1ccncc1` (relative stereo) [1.2.5(3), trans-2,9-dimethyl-6-[2-(pyridin-4-yl)ethyl]-1,2,3,4,5,5a,6,10b-octahydroazepino[4,3-b]indole], for which the IC50 in assay [1] is 1000 nM; on histamine H1 receptor, 158 nM.

On to `Cc1ccc2c(c1)[C@@H]1CN(C)CCC[C@H]1N2Cc1ccccn1` (relative stereo) [1.2.6(4), trans-2,9-dimethyl-6-(pyridin-2-ylmethyl)-1,2,3,4,5,5a,6,10b-octahydroazepino[4,3-b]indole], for which the IC50 is 1580 nM in assay [1] and 631 nM on histamine H1 receptor.

`Cc1ccc2c(c1)[C@@H]1CN(C)CCC[C@H]1N2Cc1ccc(C(=O)O)cc1` (relative stereo) [1.2.6(2), trans-4-(2,9-dimethyl-1,2,3,4,5,5a,10b-octahydroazepino[4,3-b]indol-6-ylmethyl)benzoic acid]: the IC50 (in assay [1]; on histamine H1 receptor) was more than 100000 nM each time.

On to `Cc1ccc2c(c1)[C@@H]1CN(C)CCC[C@H]1N2Cc1ccncc1` (relative stereo) [1.2.6(6), trans-2,9-dimethyl-6-(pyridin-4-ylmethyl)-1,2,3,4,5,5a,6,10b-octahydroazepino[4,3-b]indole], for which the IC50 in assay [1] is 5010 nM; at histamine H1 receptor, 200 nM.

`Cc1ccc2c(c1)c1c(n2CCc2ccncc2)CCCN(C)C1` [1.1.5(3), 2,9-dimethyl-6-[2-(pyridin-4-yl)ethyl]-1,2,3,4,5,6-hexahydroazepino[4,3-b]indole]: the IC50 in assay [1] was 1260 nM; on histamine H1 receptor it was 200 nM.

For the compound `Cc1ccc2[nH]c3c(c2c1)CN(S(=O)(=O)c1ccccc1)CCC3` [1.1.3.6(1), 2-phenylsulfonyl-9-methyl-1,2,3,4,5,6-hexahydroazepino[4,3-b]indole], the IC50 (in assay [1]; at histamine H1 receptor) was more than 100000 nM each time.

Regarding `Cc1ccc2[nH]c3c(c2c1)CN(C(=O)Nc1ccccc1)CCC3` [1.1.3.5(1), 2-phenylcarbamoyl-9-methyl-1,2,3,4,5,6-hexahydroazepino[4,3-b]indole], the IC50 (in assay [1]; on histamine H1 receptor) was more than 100000 nM in each case.

`Cc1ccc2c(c1)c1c(n2CCc2ccc(C)nc2)CCCN(C)C1` [1.1.5(2), 2,9-dimethyl-6-[2-(6-methylpyridin-3-yl)ethyl]-1,2,3,4,5,6-hexahydroazepino[4,3-b]indole]: the IC50 in assay [1] was 1580 nM; at histamine H1 receptor, 316 nM.

Values taken from US20120040965A1, “SUBSTITUTED AZEPINO[4,3-B]INDOLES, PHARMACOLOGICAL COMPOSITION AND A METHOD FOR THE PRODUCTION AND USE THEREOF” (priority 2006, published 2012).
